For 31 molecules, IC50 results are on record in patent US8530504B2, “Pyrazolothiazole compound” (Eisai R&D Management Co., Ltd., priority 2009, dated 2013).

The target in the experiment is human CRFR1 (Homo sapiens (Human), UniProt P34998). The experiment in a line: CRFR1 Binding Test.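 Also: nonspecific binding was determined with a 4,000-fold excess of unlabelled sauvagine and subtracted from every reading.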 Particulars: competition with 100 pM 125I-CRF, SPA method, membrane fraction of human CRFR1-expressing HEK293 cells; read-out: CRF1 receptor binding capacity IC50.
Sequence of human CRFR1 (P34998 24-415): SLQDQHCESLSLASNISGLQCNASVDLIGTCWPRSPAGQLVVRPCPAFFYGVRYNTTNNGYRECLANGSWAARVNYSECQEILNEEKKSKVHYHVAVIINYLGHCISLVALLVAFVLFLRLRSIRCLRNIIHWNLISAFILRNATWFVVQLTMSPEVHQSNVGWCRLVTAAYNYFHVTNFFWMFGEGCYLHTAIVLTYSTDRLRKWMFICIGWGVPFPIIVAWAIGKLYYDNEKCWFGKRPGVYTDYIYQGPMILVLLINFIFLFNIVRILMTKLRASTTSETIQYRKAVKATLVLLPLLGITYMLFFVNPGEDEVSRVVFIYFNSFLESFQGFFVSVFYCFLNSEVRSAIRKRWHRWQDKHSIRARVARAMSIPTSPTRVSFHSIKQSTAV

Consider `COCc1cc(OC)c(-c2csc3c(N(CC(C)C)C4CCOC4)c(OC)nn23)c(OC)c1` (stereo not shown) [Example 43, [3-(2,6-Dimethoxy-4-methoxymethylphenyl)-6-methoxy-pyrazolo[5,1-b][1,3]thiazol-7-yl]-isobutyl-(tetrahydrofuran-3-yl)-amine], for which the IC50 is 45 nM.
Next, `CCCN(Cc1ccncc1)c1c(OC)nn2c(-c3c(OC)cc(COC)cc3OC)csc12` [Example 44, 3-[2,6-Dimethoxy-4-(methoxymethyl)phenyl]-6-methoxy-N-propyl-N-(pyridin-4-ylmethyl)pyrazolo[5,1-b][1,3]thiazole-7-amine]: 53 nM; `CCOCCN(CC1CC1)c1c(OC)nn2c(-c3c(OC)cc(COC)cc3OC)csc12` [Example 45, N-(Cyclopropylmethyl)-3-[2,6-dimethoxy-4-(methoxymethyl)phenyl]-N-(2-ethoxyethyl)-6-methoxypyrazolo[5,1-b][1,3]thiazole-7-amine]: 48 nM.
In the case of `CCOCc1cc(OC)c(-c2csc3c(N(CC4CCC4)C4CCOC4)c(OC)nn23)c(OC)c1` (stereo not shown) [Example 47, N-(Cyclobutylmethyl)-3-[4-(ethoxymethyl)-2,6-dimethoxyphenyl]-6-methoxy-N-(tetrahydrofuran-3-yl)pyrazolo[5,1-b][1,3]thiazole-7-amine], the half-maximal inhibitory concentration (IC50) came out at 32 nM.
With `COCCN(CC1CCC1)c1c(OC)nn2c(-c3c(OC)cc(COC)cc3OC)csc12` [Example 48, N-(Cyclobutylmethyl)-3-[2,6-dimethoxy-4-(methoxymethyl)phenyl]-6-methoxy-N-(2-methoxyethyl)pyrazolo[5,1-b][1,3]thiazole-7-amine] the figure was 25 nM.
Next, `COCc1cc(OC)c(-c2csc3c(N(CCOC(C)C)CC4CC4)c(OC)nn23)c(OC)c1` [Example 49, N-(Cyclopropylmethyl)-3-[2,6-dimethoxy-4-(methoxymethyl)phenyl]-N-(2-isopropoxyethyl)-6-methoxypyrazolo[5,1-b][1,3]thiazole-7-amine]: 59 nM; `COCc1cc(OC)c(-c2csc3c(N(CCC(C)OC)CC4CC4)c(OC)nn23)c(OC)c1` (stereo not shown) [Example 50, N-(Cyclopropylmethyl)-3-[2,6-dimethoxy-4-(methoxymethyl)phenyl]-6-methoxy-N-(3-methoxybutyl)pyrazolo[5,1-b][1,3]thiazole-7-amine]: 87 nM; `COCc1cc(OC)c(-c2csc3c(N(CC4CC4)CC(C)OC)c(OC)nn23)c(OC)c1` (stereo not shown) [Example 51, N-(Cyclopropylmethyl)-3-[2,6-dimethoxy-4-(methoxymethyl)phenyl]-6-methoxy-N-(2-methoxypropyl)pyrazolo[5,1-b][1,3]thiazole-7-amine]: 36 nM.
With `COCCN(c1c(OC)nn2c(-c3c(OC)cc(COC)cc3OC)csc12)C1CCCC1` [Example 53, N-Cyclopentyl-3-[2,6-dimethoxy-4-(methoxymethyl)phenyl]-6-methoxy-N-(2-methoxyethyl)pyrazolo[5,1-b][1,3]thiazole-7-amine] the figure was 18 nM.
For the molecule `COCCN(c1c(OC)nn2c(-c3c(OC)cc(COC)cc3OC)csc12)C1CCCCC1` [Example 54, N-Cyclohexyl-3-[2,6-dimethoxy-4-(methoxymethyl)phenyl]-6-methoxy-N-(2-methoxyethyl)pyrazolo[5,1-b][1,3]thiazole-7-amine], the IC50 came out at 20 nM.
With `COCCN(CC(C)C)c1c(OC)nn2c(-c3c(OC)cc(COC)cc3OC)csc12` [Example 55, 3-[2,6-Dimethoxy-4-(methoxymethyl)phenyl]-N-isobutyl-6-methoxy-N-(2-methoxyethyl)pyrazolo[5,1-b][1,3]thiazole-7-amine] the figure was 19 nM.
As to `COCCN(c1c(OC)nn2c(-c3c(OC)cc(COC)cc3OC)csc12)C1CCC1` [Example 56, N-Cyclobutyl-3-[2,6-dimethoxy-4-(methoxymethyl)phenyl]-6-methoxy-N-(2-methoxyethyl)pyrazolo[5,1-b][1,3]thiazole-7-amine], the concentration for half-maximal inhibition (IC50) came out at 31 nM.
On to `CCN(c1c(OC)nn2c(-c3c(OC)cc(COC)cc3OC)csc12)C1CCC1` [Example 59, N-Cyclobutyl-3-[2,6-dimethoxy-4-(methoxymethyl)phenyl]-N-ethyl-6-methoxypyrazolo[5,1-b][1,3]thiazole-7-amine], for which the IC50 amounted to 24 nM.
For the molecule `COc1cc(C2CC2)cc(OC)c1-c1csc2c(N(CC3CC3)CC3CCOC3)c(OC)nn12` (stereo not shown) [Example 60, 3-(4-Cyclopropyl-2,6-dimethoxyphenyl)-N-(cyclopropylmethyl)-6-methoxy-N-(tetrahydrofuran-3-ylmethyl)pyrazolo[5,1-b][1,3]thiazole-7-amine], the IC50 amounted to 33 nM.
Regarding `CCCN(c1c(OC)nn2c(-c3c(OC)cc(C4CC4)cc3OC)csc12)C1CCOCC1` [Example 61, 3-(4-Cyclopropyl-2,6-dimethoxyphenyl)-6-methoxy-N-propyl-N-(tetrahydro-2H-pyran-4-yl)pyrazolo[5,1-b][1,3]thiazole-7-amine], the IC50 was 39 nM.
With `COCCCN(c1c(OC)nn2c(-c3c(OC)cc(COC)cc3OC)csc12)C1CCC1` [Example 62, N-Cyclobutyl-3-[2,6-dimethoxy-4-(methoxymethyl)phenyl]-6-methoxy-N-(3-methoxypropyl)pyrazolo[5,1-b][1,3]thiazole-7-amine] the figure was 73 nM.
As to `COCCCN(c1c(OC)nn2c(-c3c(OC)cc(COC)cc3OC)csc12)C1CCCC1` [Example 63, N-Cyclopentyl-3-[2,6-dimethoxy-4-(methoxymethyl)phenyl]-6-methoxy-N-(3-methoxypropyl)pyrazolo[5,1-b][1,3]thiazole-7-amine], the IC50 came out at 61 nM.
With `CCN(c1c(OC)nn2c(-c3c(OC)cc(C4CC4)cc3OC)csc12)C1CCOCC1` [Example 64, 3-(4-Cyclopropyl-2,6-dimethoxyphenyl)-N-ethyl-6-methoxy-N-(tetrahydro-2H-pyran-4-yl)pyrazolo[5,1-b][1,3]thiazole-7-amine], the half-maximal inhibitory concentration (IC50) worked out at 61 nM.
With `CCN(c1c(OC)nn2c(-c3c(OC)cc(COC)cc3OC)csc12)C1CCCC1` [Example 66, N-Cyclopentyl-3-[2,6-dimethoxy-4-(methoxymethyl)phenyl]-N-ethyl-6-methoxypyrazolo[5,1-b][1,3]thiazole-7-amine] the figure was 26 nM; with `COCc1cc(OC)c(-c2csc3c(N(C4CCC4)C4CCOC4)c(OC)nn23)c(OC)c1` (stereo not shown) [Example 67, N-Cyclobutyl-3-[2,6-dimethoxy-4-(methoxymethyl)phenyl]-6-methoxy-N-(tetrahydrofuran-3-yl)pyrazolo[5,1-b][1,3]thiazole-7-amine], 52 nM.
As to `CCCN(c1c(OC)nn2c(-c3c(OC)cc(COC(C)C)cc3OC)csc12)C1CCOCC1` [Example 68, [3-(4-Isopropoxymethyl-2,6-dimethoxyphenyl)-6-methoxy-pyrazolo[5,1-b][1,3]thiazol-7-yl]-propyl-(tetrahydro-pyran-4-yl)-amine], the IC50 was determined as 77 nM.
Next, `COCCCN(c1c(OC)nn2c(-c3c(OC)cc(C4CC4)cc3OC)csc12)C1CCCC1` [Example 69, N-Cyclopentyl-3-(4-cyclopropyl-2,6-dimethoxyphenyl)-6-methoxy-N-(3-methoxypropyl)pyrazolo[5,1-b][1,3]-thiazole-7-amine]: 48 nM.
With `COCc1cc(OC)c(-c2csc3c(N(CCCF)Cc4ccncc4)c(OC)nn23)c(OC)c1` [Example 70, 3-[2,6-Dimethoxy-4-(methoxymethyl)phenyl]-N-(3-fluoropropyl)-6-methoxy-N-(pyridin-4-ylmethyl)-pyrazolo[5,1-b][1,3]thiazole-7-amine] the figure was 61 nM.
`COCc1cc(OC)c(-c2csc3c(N(CCCF)Cc4cccnc4)c(OC)nn23)c(OC)c1` [Example 71, 3-[2,6-Dimethoxy-4-(methoxymethyl)phenyl]-N-(3-fluoropropyl)-6-methoxy-N-(pyridin-3-ylmethyl)-pyrazolo[5,1-b][1,3]thiazole-7-amine]: the concentration for half-maximal inhibition (IC50) came out at 58 nM.
Next, `COCc1cc(OC)c(-c2csc3c(N(CCCF)Cc4ccccn4)c(OC)nn23)c(OC)c1` [Example 72, 3-[2,6-Dimethoxy-4-(methoxymethyl)phenyl]-N-(3-fluoropropyl)-6-methoxy-N-(pyridin-2-ylmethyl)-pyrazolo[5,1-b][1,3]thiazole-7-amine]: 75 nM.
With `COCCCN(c1c(OC)nn2c(-c3c(Cl)cc(COC)cc3OC)csc12)C1CCCC1` [Example 73, 3-[2-Chloro-6-methoxy-4-(methoxymethyl)phenyl]-N-cyclopentyl-6-methoxy-N-(3-methoxypropyl)pyrazolo[5,1-b][1,3]thiazole-7-amine] the figure was 66 nM; with `COCCN(c1c(OC)nn2c(-c3c(OC)cc(C#N)cc3OC)csc12)C1CCCC1` [Example 74, 4-{7-[Cyclopentyl(2-methoxyethyl)amino]-6-methoxypyrazolo[5,1-b][1,3]thiazol-3-yl}-3,5-dimethoxybenzonitrile], 52 nM; with `CCCCN(c1c(OC)nn2c(-c3c(OC)cc(COC(C)C)cc3OC)csc12)C1CCOCC1` [Example 75, Butyl-[3-(4-isopropoxymethyl-2,6-dimethoxy-phenyl)-6-methoxy-pyrazolo[5,1-b][1,3]thiazol-7-yl]-(tetrahydro-pyran-4-yl)amine], 74 nM.
With `COCc1cc(OC)c(-c2csc3c(N(CC(C)C)CC4(OC)CC4)c(OC)nn23)c(OC)c1` [Example 76, 3-[2,6-Dimethoxy-4-(methoxymethyl)phenyl]-N-isobutyl-6-methoxy-N-[(1-methoxycyclopropyl)methyl]pyrazolo[5,1-b][1,3]thiazole-7-amine] the figure was 37 nM.
For `CCCN(c1c(OCC)nn2c(-c3c(OC)cc(COC)cc3OC)csc12)C1CCOCC1` [Example 79, 3-[2,6-Dimethoxy-4-(methoxymethyl)phenyl]-6-ethoxy-N-propyl-N-(tetrahydro-2H-pyran-4-yl)pyrazolo[5,1-b][1,3]thiazole-7-amine], the IC50 came to 76 nM.
Next, `CCOc1nn2c(-c3c(OC)cc(COC)cc3OC)csc2c1N(CC1CC1)C1CCOCC1` [Example 81, N-(Cyclopropylmethyl)-3-[2,6-dimethoxy-4-(methoxymethyl)phenyl]-6-ethoxy-N-(tetrahydro-2H-pyran-4-yl)-pyrazolo[5,1-b][1,3]thiazole-7-amine]: 89 nM.
